{"source": "patent US11517588B2", "about": "“Nanoparticle, preparation process and uses thereof” (National Tsing Hua University, priority 2019, dated 2022)", "key": {"HCA-1 cells [1]": {"tested_on": "HCA-1 cells", "assay": "EMT phenotype under hypoxic conditions, qRT-PCR", "format": "cell-based, murine", "conditions": "hypoxic conditions (1% oxygen), 24 h, dose-dependent manner", "method": "The mRNA level was determined by qRT-PCR 24 h after treatment with free DNIC at different doses (control and hypoxia, n=3; 0.5 and 1 μM DNIC, n=5; 5 μM DNIC, n=6 biologically independent samples)."}, "[2]": {"conditions": "mouse, in vivo, iv", "procedure": "The pharmacokinetics and biodistribution of NanoNO in orthotopic murine HCC models generated using HCA-1 were evaluated.\nThe procedure of pharmacokinetic and tissue distribution study was as follows. C3H/HeNCrNarl male mice with orthotopic implants of HCA-1 cells were injected intravenously with free DNIC (10 mg/kg) or NanoNO (7.5 mg/kg). At different time points, 200 μL of blood was collected from the orbital sinus and mixed with 50 μL of 1000 U/mL heparin (Sigma, USA). For evaluation of tissue distribution, four hours after administration, the mice were sacrificed. The tissues were collected and homogenized in lysis buffer (10 mM Tris-HCl, 1% Triton X-100, 0.1% SDS, 0.1% SDC and 140 mM NaCl). The tissue lysates were kept on ice for 30 min and centrifuged at 25,001 rcf at 4° C. for 30 min, and the supernatants were collected. The DNIC signal was measured by electron paramagnetic resonance (EPR plus, Bruker, Germany). HSCH2CH2OH (1 mM) was added to the serum or tissue lysates to transform all the DNICs into the EPR-active form for analysis. The DNIC concentration was calculated according to a standard curve obtained by the amounts of DNIC or NanoNO.\nNon-compartmental analysis was employed for the pharmacokinetic parameter analysis. AUC, area under the curve; CL, clearance; h, hour; t1/2, half-life; Vss, steady state volume of distribution."}, "PD-L1": {"tested_on": "PD-L1", "assay": "PD-L1 mRNA and protein expression in HCC cells in vitro", "format": "cell-based, murine and human", "conditions": "dose-dependent manner", "method": "The procedure of Western blot analysis was as follows. Cells or tissue were lysed in RIPA lysis buffer. Cell lysates were separated on a 10% acrylamide gel and transferred to a PVDF membrane. Membranes were blocked for 1 h in 5% skim milk and then incubated overnight with polyclonal antibodies against PD-L1 and R-actin (clone 122M4782, Cell Signaling, Danvers, Mass.).\nFIG. 6F is a data diagram showing reprogramming of tumor microenvironment by NanoNO. FIG. 6G is a Western blot staining diagram showing reprogramming of tumor microenvironment by NanoNO. PD-L1 mRNA and protein expression in HCA-1 cells was analysed by qRT-PCR (n=3 biologically independent samples) (FIG. 6F) and Western blot analysis (FIG. 6G) After treatment with free-form DNIC in vitro. The experiments were repeated twice independently."}, "HUVECs": {"tested_on": "HUVECs", "assay": "Expression of pro-angiogenic and vessel stabilizing factors, RT-qPCR", "format": "cell-based, human", "conditions": "DNIC 1 μM, 24 h", "excerpt": "(§1) The procedure of reverse transcription quantitative real time PCR was as follows. Total RNA was extracted from HUVECs or flow-sorted tumor-associated macrophages using the RNeasy Mini Kit (Qiagen, Calif., USA). cDNAs were synthesized using the High-Capicity cDNA Reverse Transcription Kit (Applied Biosystems, Calif., USA). Primers specific for Arignase-1, CCL17, CCL22, IL10, MRC1, CXCL9, IL-1β, TNF-α, CXCL-11, NOS2, NOS3, Snail, Slug, Zeb1, Zeb2, Trim28, Fibronectin, Vimentin, E-cadherin, PD-L1, S1PR1, ANGPT1, PDGF-B, VEGFA, ANGPT2, EGF, IL-6, PPARγ, TGFβ, GAPDH and β-actin were used (Table 2), and relative gene expression was determined using Real-Time SYBR Green PCR Master Mix (Applied Biosystems, Calif., USA) on a QPCR System. The comparative threshold cycle method was used to calculate fold change in gene expression, which was normalized to β-actin.\nNO acts as a crucial modulator in regulating angiogenesis and maintaining the vasculature function in TME. […]\nFIG. 5A is a data diagram of normalized tumor blood vessels in HCC by low-dose NanoNO. Expression of the pro-angiogenic and vessel stabilizing factors in HUVECs 24 h after treatment with DNIC (1 μM) measured by RT-qPCR. The results are expressed as the fold change relative to the untreated control group (n=9 biologically independent samples). […]"}, "SP1": {"tested_on": "SP1", "assay": "SP1 luciferase reporter", "format": "cell-based, murine", "conditions": "free-form DNIC 0.5 μM, 24 h, HCA-1 cells", "method": "The procedure of DNIC triggered activation of SP1 in HCA-1 HCC cells was as follows. HCA-1 cells expressing SP1 reporter (Qiagen, Germany) were established by transfection using Lipofectamine® 2000 (Thermo Fisher Scientific, USA). The cells were then treated with free-form DNIC. After 24 h incubated, the cells were lysed and luciferase signal was measured by microplate reader (Spark 10M, Tecan, Germany).\nData are pooled from two independent experiments. […] Analysis was performed using two-tailed Mann-Whitney U test."}, "[3]": {"conditions": "pH 7.4", "procedure": "Free DNIC and NanoNO were suspended with PBS buffer or acetic buffer (pH 4.0 or 5.5) and then incubated at 37° C. in a 200 rpm Orbital Shaker. At different time points, the solution was harvested, dissolved in DMSO and analysed by a UV spectrophotometer at 360 nm.\nThe kinetic profile for the decomposition of DNIC and the concomitant release of NO from NanoNO were evaluated under physiological and acidic pH conditions at 37° C. […] Free-form DNIC and NanoNO were incubated in a PBS buffer or acetic buffer at a pH of 4.0-7.4, and DNIC destruction was measured using a UV spectrophotometer at 360 nm (n=5 independent samples). The results are expressed as percentage of the initial DNIC. **P=0.0094 and ***P=0.0004 compared to NanoNO at a pH of 7.4.\nFree-form DNIC and NanoNO were incubated in PBS containing 10% fetal bovine serum at 37° C. DNIC destruction was measured using a UV spectrophotometer at 360 nm. The results are expressed as the percentage of the initial DNIC (n=3 samples). All data are shown as the mean value± the s.e.m."}, "[4]": {"assay": "Cumulative release of NO, DAR-1 fluorescence probe", "format": "physicochemical", "conditions": "PBS pH 7.4, 37° C.", "method": "The cumulative release of NO from NanoNO over time was assessed using an NO-specific 4,5-diamino-N,N,N′,N′-tetraethylrhodamine (DAR-1) fluorescence probe.\nThe release profile of NO from free DNIC or NanoNO was investigated at pH 7.4 at 37° C. Briefly, free DNIC and NanoNO were suspended with PBS buffer. DAR-1 at a final concentration of 20 μM was added to the solution and then incubated at 37° C. on a 200 rpm orbital shaker. At different time points, the solution was harvested, and the fluorescence intensity (excitation at 560 nm, emission at 595 nm) was measured using a microplate reader (Spark 10M, Tecan, Germany).\nFIG. 3 is a data diagram of the effect of NanoNO on the cumulative release of nitric oxide. NO release from free-form DNIC and NanoNO under physiological conditions (pH of 7.4). Free-form DNIC and NanoNO were incubated in PBS buffer at pH 7.4, and the release of NO was measured as the fluorescence intensity (excitation at 560 nm and emission at 595 nm) of the NO-specific probe DAR-1. The results are expressed as a fold change compared to time 0 (free DNIC, n=5; NanoNO; n=4 independent samples). *P=0.0159 compared to free DNIC. FL: fluorescence intensity."}, "[5]": {"tested_on": "orthotopic HCA-1 HCC tumors", "assay": "Tissue distribution of DNIC and NO release in tumors", "design": "species or system C3H mice", "conditions": "mouse, in vivo, iv", "method": "ID/g, injected dose per gram. *P=0.0159 compared to Free DNIC. […] Next, NBD-labeled DNIC was used to track the intracellular delivery of free DNIC and NanoNO, and the NO-specific fluorescence probe DAR-1 was used to assess the penetration of NO released from free DNIC and NanoNO in HCC. In FIG. 4F, microphotographs of HCC tumors show DNIC uptake (green) and NO release (red) four hours after intravenous administration of NBD-DNIC loaded in NanoNO or free-form NBD-DNIC (7.5 mg/kg) to mice. 4',6-diamidino-2-phenylindole (DAPI, a fluorescent dye capable of binding strongly to DNA), blue. Scale bar, 50 μm. The experiments were repeated twice independently. […] NO release (red) was detected using DAR-1 in tumors four hours after intravenous administration of NanoNO or free-form DNIC (10 mg/kg) in mice. The arrowheads indicate perivascular NO gradients. Scale bar, 20 μm. The release of NO was imaged and quantified with a Zeiss LSM 780 confocal microscope (n=7 section images from four mice). The experiments were repeated twice independently. The procedure of distribution of NO in the tumor area was as follows. […] Four hours after administration, mice were sacrificed. Tumor tissues were embedded in Tissue-Tek (OCT compound) and immediately frozen in liquid nitrogen. Tumor tissue was sectioned (10 μm thick) onto slides. […]"}, "Macrophage": {"tested_on": "Macrophage", "assay": "Macrophage polarization after treatment of DNIC in vitro (qPCR)", "format": "cell-based, human", "excerpt": "The murine hepatocellular carcinoma (HCC) cell line HCA-1 and the human HCC cell lines JHH-7, Hep3B and human lung fibroblasts (HLF) were provided by Dr. Dan Duda (Massachusetts General Hospital, Boston). The human HCC cell line Mahlavu was provided by Dr. Han-Chung Wu (Academia Sinica, Taiwan). The human monocyte cell line THP-1 (ATCC® TIB-202™) was purchased from ATCC. HUVECs (BCRC H-UV001) were obtained from the Bioresource Collection and Research Center, Food Industry Research and Development Institute (Hsinchu, Taiwan). Cell lines were authenticated and tested for mycoplasma. HCA-1 and Mahlavu cells were cultured in high-glucose Dulbecco's modified Eagle's medium (DMEM); JHH-7 and HLF cells were cultured in DMEM/F12 medium; Hep3B cells were cultured in Minimum Essential Medium Alpha (MEMα) (Sigma-Aldrich, St. Louis, Mo.); THP-1 cells were maintained in RPMI-1640 (Corning, N.Y.). All media were supplemented with 10% fetal bovine serum (FBS) and 1% antibiotics (penicillin and streptomycin, HyClone, Logan, Utah). The HUVECs were cultured in Medium 199 (Sigma-Aldrich, St. Louis, Mo.) containing 20% FBS, ECGS (30 μg/mL), heparin (25 U/mL) and L-glutamine (2 mM). THP-1 cells were differentiated into macrophages by 72 h incubation with 20 ng/mL phorbol 12-myristate 13-acetate (PMA, Sigma-Aldrich, St. Louis, Mo.).\nas §1"}, "HCA-1 cells [6]": {"tested_on": "HCA-1 cells", "assay": "Invasion and wound healing assays", "format": "cell-based, murine", "conditions": "72 h after treatment", "method": "The procedure of transwell invasion assay was as follows. Cell invasion was examined using a QCM ECMatrix 24-well Cell Invasion Assay (EMD Millipore, USA). HCA-1 cells were seeded in the top chamber without serum. DMEM-H containing 10% FBS was added to the lower chamber. Following incubation for 72 h, the cells on the lower surface were fixed with 4% paraformaldehyde (PFA, in PBS). The chambers were rinsed in PBS and stained with 1% crystal violet (in 90% ethanol) for 30 min. For each experimental condition, 10 image fields were photographed by microscopy (IX83, Olympus, Japan) and quantified.\nFIGS. 7A and 7B show free-form DNIC modulates the TME in metastatic lesions and suppresses metastatic progression of HCC. 7A-7B, Invasion (7A) and wound healing assays (7B) of HCA-1 cells were performed 72 h after treatment with free DNIC at different doses. The experiments were repeated twice independently."}}}
{"smiles": "O=[N][Fe]1([N]=O)[S](CCO)[Fe]([N]=O)([N]=O)[S]1CCO", "note": "[Free DNIC, Fe(μ-SCH2CH2OH)2(NO)4]", "values": [{"measurement": "EMT markers and E-cadherin expression", "setting": "HCA-1 cells [1]", "value": "prevented the increase in epithelial-mesenchymal transition (EMT) markers"}, {"measurement": "CL", "setting": "[2]", "value": 0.46, "unit": "mL/min/kg"}, {"measurement": "Vss", "setting": "[2]", "value": 0.0327, "unit": "L/kg"}, {"measurement": "t1/2", "setting": "[2]", "value": 1.27, "unit": "h"}, {"measurement": "PD-L1 expression in murine and human HCC cells in vitro", "setting": "PD-L1", "value": "significantly reduced PD-L1 expression"}, {"measurement": "expression of pro-angiogenic genes (VEGF, ANGPT2, and EGF)", "setting": "HUVECs", "value": "downregulated"}, {"measurement": "expression of vessel maturation-related genes (S1PR1 and ANGPT1)", "setting": "HUVECs", "value": "significantly upregulated"}, {"measurement": "SP-1 luciferase activity", "setting": "SP1", "value": "significantly decreased"}, {"measurement": "half-life of DNIC (DNIC destruction)", "setting": "[3]", "value": "3.9 ± 1.5", "unit": "h"}, {"measurement": "in vitro release of NO", "setting": "[4]", "value": "proceeded at a rapid rate during the first two hours"}, {"measurement": "accumulation of DNIC in HCC tumors", "setting": "[5]", "value": "poorly delivered and accumulated in the tumor"}, {"measurement": "macrophage polarization in vitro", "setting": "Macrophage", "value": "did not directly affect macrophage polarization"}, {"measurement": "Gene expression Arg-1 (M2 type)", "setting": "Macrophage; DNIC 0.5 μM", "value": "1.08 ± 0.26"}, {"measurement": "Gene expression CCL-17 (M2 type)", "setting": "Macrophage; DNIC 0.5 μM", "value": "1.06 ± 0.13"}, {"measurement": "Gene expression CCL-22 (M2 type)", "setting": "Macrophage; DNIC 0.5 μM", "value": "0.96 ± 0.11"}, {"measurement": "Gene expression CXCL-9 (M1 type)", "setting": "Macrophage; DNIC 0.5 μM", "value": "1.22 ± 0.17"}, {"measurement": "Gene expression CXCL-11 (M1 type)", "setting": "Macrophage; DNIC 0.5 μM", "value": "2.02 ± 0.79"}, {"measurement": "Gene expression IL-1b (M1 type)", "setting": "Macrophage; DNIC 0.5 μM", "value": "1.13 ± 0.07"}, {"measurement": "Gene expression IL-6 (M1 type)", "setting": "Macrophage; DNIC 0.5 μM", "value": "1.16 ± 0.03"}, {"measurement": "Gene expression MRC1 (M2 type)", "setting": "Macrophage; DNIC 0.5 μM", "value": "1.00 ± 0.17"}, {"measurement": "Gene expression PPARγ (M2 type)", "setting": "Macrophage; DNIC 0.5 μM", "value": "0.92 ± 0.05"}, {"measurement": "Gene expression TGF-β (M2 type)", "setting": "Macrophage; DNIC 0.5 μM", "value": "1.11 ± 0.06"}, {"measurement": "Gene expression TNF-α (M1 type)", "setting": "Macrophage; DNIC 0.5 μM", "value": "0.95 ± 0.08"}, {"measurement": "Gene expression iNOS (M1 type)", "setting": "Macrophage; DNIC 0.5 μM", "value": "1.10 ± 0.35"}, {"measurement": "Gene expression Arg-1 (M2 type)", "setting": "Macrophage; DNIC 1 μM", "value": "1.27 ± 0.28"}, {"measurement": "Gene expression CCL-17 (M2 type)", "setting": "Macrophage; DNIC 1 μM", "value": "1.19 ± 0.27"}, {"measurement": "Gene expression CCL-22 (M2 type)", "setting": "Macrophage; DNIC 1 μM", "value": "1.07 ± 0.22"}, {"measurement": "Gene expression CXCL-9 (M1 type)", "setting": "Macrophage; DNIC 1 μM", "value": "1.22 ± 0.53"}, {"measurement": "Gene expression CXCL-11 (M1 type)", "setting": "Macrophage; DNIC 1 μM", "value": "1.85 ± 0.72"}, {"measurement": "Gene expression IL-1b (M1 type)", "setting": "Macrophage; DNIC 1 μM", "value": "1.21 ± 0.04"}, {"measurement": "Gene expression IL-6 (M1 type)", "setting": "Macrophage; DNIC 1 μM", "value": "1.27 ± 0.08"}, {"measurement": "Gene expression IL-10 (M2 type)", "setting": "Macrophage; DNIC 1 μM", "value": "1.22 ± 0.14"}, {"measurement": "Gene expression MRC1 (M2 type)", "setting": "Macrophage; DNIC 1 μM", "value": "1.19 ± 0.16"}, {"measurement": "Gene expression PPARγ (M2 type)", "setting": "Macrophage; DNIC 1 μM", "value": "0.91 ± 0.13"}, {"measurement": "Gene expression TGF-β (M2 type)", "setting": "Macrophage; DNIC 1 μM", "value": "0.95 ± 0.03"}, {"measurement": "Gene expression TNF-α (M1 type)", "setting": "Macrophage; DNIC 1 μM", "value": "0.94 ± 0.11"}, {"measurement": "Gene expression iNOS (M1 type)", "setting": "Macrophage; DNIC 1 μM", "value": "0.93 ± 0.47"}, {"measurement": "migration and invasion of HCA-1 cells", "setting": "HCA-1 cells [6]", "value": "significantly inhibited the migration and invasion"}]}
